# Measured values taken from patent publication US5439816A, “Carboxymethylcellulase isolated from bacillus sp. PKM-5430 (FERM BP-4087)” (Kao Corporation, priority 1991, dated 1995).
# Like-named read-outs stand apart in the source and are kept apart here.
# B1: Alkalase: proteinase (protein, UniProt P00780 106-379, looked up)
# Subtilisin Carlsberg: AQTVPYGIPLIKADKVQAQGFKGANVKVAVLDTGIQASHPDLNVVGGASFVAGEAYNTDGNGHGTHVAGTVAALDNTTGVLGVAPSVSLYAVKVLNSSGSGSYSGIVSGIEWATTNGMDVINMSLGGASGSTAMKQAVDNAYAKGVVVVAAAGNSGSSGNTNTIGYPAKYDSVIAVGAVDSNSNRASFSSVGAELEVMAPGAGVYSTYPTNTYATLNGTSMASPHVAGAAALILSKHPNLSASQVRNRLSSTATYLGSSFYYGKGLINVEAAAQ
# Experiments:
# [1] = system: Carboxymethylcellulase 5812; assay: Effects of chelating agents, thiol reagents, additives and proteinases on Carboxymethylcellulase 5812; format: biochemical, Bacillus sp. PKM-5812; settings: for stimulated the activity of the enzyme by: added at 1 mM; for Relative activity (%): none = 100
# Experimental: (§1) Activities were determined by the DNS method (J. R. Summer and G. F. Somers, Laboratory Experiments in Biological Chemistry, Academic Press, New York, U.S.A., 1944). Namely, 0.1 ml of a suitably diluted enzyme solution was added to 0.9 ml of a 1.1% (w/v) solution of a CMC (A01MC) substrate in 0.1M glycine-NaOH buffer (pH: 9.0). After a 20-minute reaction at 40° C., 1 ml of 0.05% (w/v) 3,5-dinitrosalicylic acid solution (product of Wako Pure Chemical Industries, Ltd.) was added, and the resulting mixture was immediately placed in a boiling water bath for 5 minutes, followed by cooling in an iced water bath. Then, 4 ml of deionized water was added further, afterwhich, colorimetry was conducted by measuring an absorbance at 535 nm. With respect to enzymatic activity, the amount of enzyme, which liberates reducing sugars corresponding to 1 μmole of glucose for 1 minute, was defined as 1 unit.
# (§2) On the other hand, 2-mercaptoethanol and dithiothreitol, each added at 1 mM, stimulated the activity of the enzyme by 52% and 84%, respectively. It was not observed that the proteinases such as alkalase, maxatase, savinase and Protease API-21 inactivated the enzyme of this invention under this reaction conditions.
# [2] = system: Carboxymethylcellulase 5430; assay: Effects of chelating agents, thiol reagents, additives and proteinases on Carboxymethylcellulase 5430; format: biochemical, Bacillus sp. PKM-5430; settings: for stimulated the activity of the enzyme by: added at 1 mM; for Relative activity (%): none = 100
# Experimental: as §1
# as §2, with “39%” for “52%”, “50%,” for “84%,”
# [3] = system: Carboxymethylcellulase 5430; format: biochemical, Bacillus sp. PKM-5430
# Experimental: as §1
# (§3) However, the activity of the enzyme was not inhibited by the other inhibitors.
# (§4) *: The enzyme was pretreated at pH 5.5 (50 mM acetate buffer).
# [4] = system: Carboxymethylcellulase 5812; format: biochemical, Bacillus sp. PKM-5812
# Experimental: as §1, §3, §4
# [5] = system: Carboxymethylcellulase 5812; assay: Effects of metal ions on carboxymethylcellulase activity of Carboxymethylcellulase 5812; format: biochemical, Bacillus sp. PKM-5812; settings: for Relative activity (%): 20 minutes at 40° C., pH 9.0, none = 100
# Experimental: as §1
# Among the various metal ions tested, Hg^2+, at 1 mM, inhibited the activity of the enzyme by about 75%. On the contrary, Co^+2, at 1 mM stimulated the activity of the enzyme by about 50%, and Mn^+2, at 1 mM, also stimulated the activity by 53%.
# [6] = system: Carboxymethylcellulase 5430; assay: Effects of metal ions on carboxymethylcellulase activity of Carboxymethylcellulase 5430; format: biochemical, Bacillus sp. PKM-5430; settings: for Relative activity (%): 20 minutes at 40° C., pH 9.0, none = 100
# Experimental: as §1
# Among the various metal ions tested, Hg^2+, at 1 mM, inhibited the activity of the enzyme by about 75%. On the contrary, Co^+2, at 1 mM stimulated the activity of the enzyme by about 30% and Mn^+2, at 1 mM, also stimulated the activity by about 50%.
# [7] = system: Carboxymethylcellulase 5812; assay: Substrate specificity of Carboxymethylcellulase 5812 (hydrolytic activities, DNS method / p-nitrophenol release); format: biochemical, Bacillus sp. PKM-5812
# Experimental: as §1
# (§5) Sodium hydroxide- and phosphoric acid-swollen celluloses were prepared according to the method of Tomita et al. [Y. Tomita, H. Suzuki and K. Nisizawa, J. Biochem., 78, 499(1975)]. The reducing sugar liberated was determined in a similar manner to that of the method (a) except that substrate solutions containing cellulose substrates were used, and the reaction was conducted at 30° C.
# (§6) The reducing sugar liberated was determined in a similar manner to that of the method (a) except that substrate solutions containing polysaccharides were used, and the reaction was conducted at 30° C.
# (§7) A suitably diluted enzyme solution was added to a solution of 8 mM of a PNPG or PNPC substrate in 0.1M phosphate buffer of pH 7.0 to react them for 20 minutes at 30° C. The p-nitrophenol liberated was determined at 400 nm and the amount formed was calculated.
# (§8) The enzyme is also active toward cellobiose, PNPG, PNPC, cellulose powder and phosphoric acid-swollen cellulose.
# [8] = system: Carboxymethylcellulase 5430; assay: Substrate specificity of Carboxymethylcellulase 5430 (hydrolytic activities, DNS method / p-nitrophenol release); format: biochemical, Bacillus sp. PKM-5430
# Experimental: as §1, §5, §6, §7, §8
# [9] = system: Carboxymethylcellulase 5430; assay: Effects of surfactants on carboxymethylcellulase activity of Carboxymethylcellulase 5430; format: biochemical, Bacillus sp. PKM-5430; settings: for Relative activity (%): surfactant 0.05%, 20 minutes at 40° C., pH 9.0, none = 100
# Experimental: as §1
# In particular, SDS and the fatty acid salt stimulated the activity of the enzyme by 26% and 45%, respectively.
# [10] = system: Carboxymethylcellulase 5812; assay: Effects of surfactants on carboxymethylcellulase activity of Carboxymethylcellulase 5812; format: biochemical, Bacillus sp. PKM-5812; settings: for Relative activity (%): surfactant 0.05%, 20 minutes at 40° C., pH 9.0, none = 100
# Experimental: as §1
# In particular, SDS and the fatty acid salt stimulated the activity of the enzyme by 21% and 23%, respectively.
# [11] = reagent 1 mM, 20 minutes at 40° C., pH 9.0
# [12] = inhibitor 1.0 mM, 20 minutes at 40° C., pH 9.0, none = 100
# [13] = substrate 0.1%, activity toward CMC at 30° C. taken as 100%
# [14] = metal ion 1 mM, listed as Fe^3+
# [15] = inhibitor 0.1 mM, enzyme pretreated at pH 5.5 (50 mM acetate buffer), none = 100
# [16] = substrate 8 mM, 0.1M phosphate buffer pH 7.0, 30° C., activity toward CMC taken as 100%
# [17] = reagent 0.01%, 20 minutes at 40° C., pH 9.0
molecule,measurement,setting,value
O[C@H](CS)[C@H](O)CS (racemic) [Dithiothreitol],stimulated the activity of the enzyme by,[1],84%
same,Relative activity (%),[1]; [11],184%
same,stimulated the activity of the enzyme by,[2],50%
same,Relative activity (%),[2]; [11],150%
OCCS [2-Mercaptoethanol],stimulated the activity of the enzyme by,[1],52%
same,Relative activity (%),[1]; [11],152%
same,stimulated the activity of the enzyme by,[2],39%
same,Relative activity (%),[2]; [11],139%
O=C(O)c1cc[c]([Hg][Cl])cc1 [4-Chloromercuribenzoic acid],Relative activity (%),[3]; [12],118%
same,Relative activity (%),[4]; [12],105%
[Al+3] [Al^3+],Relative activity (%),[5]; metal ion 1 mM,97%
same,Relative activity (%),[6]; metal ion 1 mM,101%
[Ca+2] [Ca^2+],Relative activity (%),[5]; metal ion 1 mM,108%
same,Relative activity (%),[6]; metal ion 1 mM,108%
OC[C@H]1O[C@@H](O[C@H]2[C@H](O)[C@@H](O)C(O)O[C@@H]2CO)[C@H](O)[C@@H](O)[C@@H]1O (stereo partly shown) [Cellobiose],activity of the enzyme toward substrate,[7],active
same,Relative activity (%),[7]; [13],0.4%
same,activity of the enzyme toward substrate,[8],active
same,Relative activity (%),[8]; [13],0.4%
[Co+2] [Co^2+],stimulated the activity of the enzyme by,[5]; at 1 mM,about 50%
same,Relative activity (%),[5]; metal ion 1 mM,150%
same,stimulated the activity of the enzyme by,[6]; at 1 mM,about 30%
same,Relative activity (%),[6]; metal ion 1 mM,149%
[Cu+2] [Cu^2+],Relative activity (%),[5]; metal ion 1 mM,98%
same,Relative activity (%),[6]; metal ion 1 mM,97%
O=C(O)CN(CCN(CC(=O)O)CC(=O)O)CC(=O)O [EDTA],effect of chelating agents on enzyme activity,[1],somewhat inhibited
same,Relative activity (%),[1]; [11],79%
same,effect of chelating agents on enzyme activity,[2],somewhat inhibited
same,Relative activity (%),[2]; [11],71%
O=C(O)CN(CCOCCOCCN(CC(=O)O)CC(=O)O)CC(=O)O [EGTA],effect of chelating agents on enzyme activity,[1],somewhat inhibited
same,Relative activity (%),[1]; [11],73%
same,effect of chelating agents on enzyme activity,[2],somewhat inhibited
same,Relative activity (%),[2]; [11],66%
[Fe+2] [Fe^2+],Relative activity (%),[5]; metal ion 1 mM,101%
same,Relative activity (%),[5]; [14],104%
same,Relative activity (%),[6]; metal ion 1 mM,105%
same,Relative activity (%),[6]; [14],110%
[Hg+2] [Hg^2+],inhibited the activity of the enzyme by,[5]; at 1 mM,about 75%
same,Relative activity (%),[5]; metal ion 1 mM,27%
same,inhibited the activity of the enzyme by,[6]; at 1 mM,about 75%
same,Relative activity (%),[6]; metal ion 1 mM,25%
Cl.NO [Hydroxylamine hydrochloride],Relative activity (%),[3]; [12],133%
same,Relative activity (%),[4]; [12],123%
[K+] [K^+],Relative activity (%),[5]; metal ion 50 mM,126%
same,Relative activity (%),[6]; metal ion 50 mM,116%
[Mg+2] [Mg^2+],Relative activity (%),[5]; metal ion 1 mM,109%
same,Relative activity (%),[6]; metal ion 1 mM,108%
[Mn+2] [Mn^2+],stimulated the activity of the enzyme by,[5]; at 1 mM,53%
same,Relative activity (%),[5]; metal ion 1 mM,153%
same,stimulated the activity of the enzyme by,[6]; at 1 mM,about 50%
same,Relative activity (%),[6]; metal ion 1 mM,130%
O=C(O)CI [Monoiodo acetic acid],Relative activity (%),[3]; pH 9,117%
same,Relative activity (%),[4]; pH 9,104%
O=C1CCC(=O)N1Br [N-Bromosuccinimide],inhibited the activity of this enzyme by,[3],97%
same,Relative activity (%),[3]; [15],4%
same,inhibited the activity of this enzyme by,[4],97%
same,Relative activity (%),[4]; [15],3%
[Na+] [Na^+],Relative activity (%),[5]; metal ion 50 mM,120%
same,Relative activity (%),[6]; metal ion 50 mM,121%
"O=[N+]([O-])c1ccc(O[C@@H]2O[C@H](CO)[C@@H](O[C@@H]3O[C@H](CO)[C@@H](O)[C@H](O)[C@H]3O)[C@H](O)[C@H]2O)cc1 [PNPC, p-nitrophenyl-β-D-cellobioside]",activity of the enzyme toward substrate,[7],active
same,Relative activity (%),[7]; [16],0.6%
same,activity of the enzyme toward substrate,[8],active
same,Relative activity (%),[8]; [16],1.0%
[Pb+2] [Pb^2+],Relative activity (%),[5]; metal ion 1 mM,93%
same,Relative activity (%),[6]; metal ion 1 mM,81%
"O=S(=O)(F)Cc1ccccc1 [Phenylmethanesulfonyl fluoride, phenylmethanesulfonyl fluoride]",inhibited the activity of this enzyme by,[3],24%
same,Relative activity (%),[3]; [12],76%
same,Relative activity (%),[4]; [12],107%
"CCCCCCCCCCCCOS(=O)(=O)[O-].[Na+] [SDS, sodium dodecyl sulfate]",effect of surfactants on enzyme activity,[9],either scarcely inhibited or stimulated
same,stimulated the activity of the enzyme by,[9],26%
same,Relative activity (%),[9],126%
same,effect of surfactants on enzyme activity,[10],either scarcely inhibited or stimulated
same,stimulated the activity of the enzyme by,[10],21%
same,Relative activity (%),[10],121%
[N-]=[N+]=[N-] [Sodium azide],Relative activity (%),[3]; [12],118%
same,Relative activity (%),[4]; [12],117%
[Zn+2] [Zn^2+],Relative activity (%),[5]; metal ion 1 mM,96%
same,Relative activity (%),[6]; metal ion 1 mM,92%
c1cnc2c(c1)ccc1cccnc12 [o-Phenanthroline],Relative activity (%),[1]; [11],100%
same,Relative activity (%),[2]; [11],98%
sodium alkyl sulfate [AS],effect of surfactants on enzyme activity,[9],either scarcely inhibited or stimulated
same,Relative activity (%),[9],123%
same,effect of surfactants on enzyme activity,[10],either scarcely inhibited or stimulated
same,Relative activity (%),[10],112%
sodium linear alkylbenzenesulfonate [LAS],effect of surfactants on enzyme activity,[9],either scarcely inhibited or stimulated
same,Relative activity (%),[9],105%
same,effect of surfactants on enzyme activity,[10],either scarcely inhibited or stimulated
same,Relative activity (%),[10],96%
sodium polyoxyethylene alkyl sulfate [ES],effect of surfactants on enzyme activity,[9],either scarcely inhibited or stimulated
same,Relative activity (%),[9],102%
same,effect of surfactants on enzyme activity,[10],either scarcely inhibited or stimulated
same,Relative activity (%),[10],112%
sodium α-olefin sulfonate [AOS],effect of surfactants on enzyme activity,[9],either scarcely inhibited or stimulated
same,Relative activity (%),[9],107%
same,effect of surfactants on enzyme activity,[10],either scarcely inhibited or stimulated
same,Relative activity (%),[10],105%
sodium α-sulfonated fatty acid ester [α-SFE],effect of surfactants on enzyme activity,[9],either scarcely inhibited or stimulated
same,Relative activity (%),[9],116%
same,effect of surfactants on enzyme activity,[10],either scarcely inhibited or stimulated
same,Relative activity (%),[10],97%
B1,inactivation of the enzyme by proteinases,"[1]; 20 minutes at 40° C., pH 9.0",not observed
same,Relative activity (%),[1]; [17],107%
same,inactivation of the enzyme by proteinases,"[2]; 20 minutes at 40° C., pH 9.0",not observed
same,Relative activity (%),[2]; [17],111%
